From ChEMBL document CHEMBL4673320, “Structure Elucidation of the spiro-Polyketide Svalbardine B from the Arctic Fungal Endophyte Poaceicola sp. E1PB with Support from Extensive ESI-MS Interpretation” (J Nat Prod, 2020)
Active and inactive are the calls of the source.

Tests used:
SH-SY5Y = experiment: Cytotoxicity against human SH-SY5Y cells assessed as reduction in cell viability at 20 uM after 24 hrs by MTT assay; type: functional, cell-based
Serratia marcescens = experiment: Antibacterial activity against Serratia marcescens ATCC 14756 assessed as reduction in microbial growth at 20 uM after 18 hrs by resazurin based assay; type: functional, organism-based
Pseudomonas aeruginosa = experiment: Antibacterial activity against Pseudomonas aeruginosa ATCC 10145 assessed as reduction in microbial growth at 20 uM after 18 hrs by resazurin based assay; type: functional, organism-based
Yersinia enterocolitica = experiment: Antibacterial activity against Yersinia enterocolitica ATCC 23715 assessed as reduction in microbial growth at 20 uM after 18 hrs by resazurin based assay; type: functional, organism-based
Salmonella typhimurium = experiment: Antibacterial activity against Salmonella typhimurium ATCC 14028 assessed as reduction in microbial growth at 20 uM after 18 hrs by resazurin based assay; type: functional, organism-based; details: Salmonella enterica subsp. enterica serovar Typhimurium, DT104 ATCC 14028
Enterobacter cloacae = experiment: Antibacterial activity against Enterobacter cloacae ATCC 35030 assessed as reduction in microbial growth at 20 uM after 18 hrs by resazurin based assay; type: functional, organism-based
Shigella flexneri = experiment: Antibacterial activity against Shigella flexneri ATCC 12020 assessed as reduction in microbial growth at 20 uM after 18 hrs by resazurin based assay; type: functional, organism-based
Escherichia coli = experiment: Antibacterial activity against Escherichia coli ATCC 25922 assessed as reduction in microbial growth at 20 uM after 18 hrs by resazurin based assay; type: functional, organism-based
[1] = test system: Staphylococcus ureilyticus; experiment: Antibacterial activity against Staphylococcus cohnii subsp. urealyticum assessed as reduction in microbial growth after at 20 uM 18 hrs by resazurin based assay; type: functional
[2] = test system: Staphylococcus haemolyticus; experiment: Antibacterial activity against Staphylococcus haemolyticus ATCC 29970 assessed as reduction in microbial growth at 20 uM after 18 hrs by resazurin based assay; type: functional, organism-based
Staphylococcus aureus = experiment: Antibacterial activity against Staphylococcus aureus ATCC 25923 assessed as reduction in microbial growth at 20 uM after 18 hrs by resazurin based assay; type: functional, organism-based

Measured: Activity

COc1cc(=O)oc(C[C@H](C)O)c1C
inactive: all assays above

COC(=O)c1cc(OC)cc2c1-c1oc(C)cc(=O)c1CO2
inactive: all assays above

COC(=O)c1cc(OC)cc(O)c1C(=O)C1CC2(CCc3cc(OC)cc(C(=O)OC)c3C2=O)C(=O)C2=C(C)OC(C)=CC21 (stereo unspecified)
inactive: all assays above

C=C1OC(=O)c2c(O)cc(OC)c(C)c2[C@H]1C
inactive: all assays above

CCCc1oc(=O)cc(OC)c1C
inactive: all assays above

COc1cc(O)c2c(c1C)[C@@H](C)[C@@](O)(CO)OC2=O
inactive: all assays above
